Reference: US10844071B2, “Substituted [1,2,3]triazolo[4,5-d]pyrimidines that lower stress-induced p-tau” (BUCK INSTITUTE FOR RESEARCH ON AGING, priority 2015, dated 2020)
Values after ≈ are worked out from the molar mass of the structure shown. “Also recorded” adds a separate entry of the source. Where two headings read alike, the source gives them in different places.

How the values were obtained:
SH-SY5Y cells [1] = test: Secondary screen in SH-SY5Y cells with CRF stimulation (tau, p-tau, sAPPα); type: cell-based
Description: (§1) As described below, in vitro studies were performed using SHSY-5Y cells. These cells are a useful neurological model that differentiate into cells with morphological and biochemical characteristics of mature neurons including mature isoforms of tau.
In an initial study, SHSY-5Y cells were cultured without serum to induce differentiation and increase tau expression. […] The increases were proportional and both were about 50%. J03 (FIG. 4A) reduced the CRF-induced tau increases more than the p-tau increases. The increase in p-tau with CRF was expected, but the increase in tau less predictable as CRF reduces neuronal differentiation (see Chen et al. (2004) Proc. Natl. Acad. Sci. USA, 101(44): 15782-15787), however, it can increase tau accumulation.

[2] = In vivo pharmacokinetics, brain and plasma levels; parameters: species or system mouse
SH-SY5Y cells [3] = test: Primary screen in SH-SY5Y cells (tau, p-tau); type: cell-based
Description: as §1
However, J04 did lower p-tau to the same level as J03 and significant may not have been reached due to low N #.

J20 mice [4] = test: J03 pilot study #1 in J20 mice (SQ, 12 days); type: in vivo, mouse; conditions: SQ 10 mkd
Description: (§2) Animal experiments were performed using J20 mice. The J20 mouse is a model of for Alzheimer's disease. This model overexpresses human APP with two mutations linked to familial Alzheimer's disease (the APP KM670/671NL (Swedish) and […] (Indiana) mutations).
In pilot study #1, J20 mice housed singly were treated by SQ injection of J02 in PEG/b-MCD at 10 mkd for 12 days. NOR analysis of object memory (N=5/group) was performed. […] There was no difference in Aβ1-40 (panel B), but a decrease in Aβ1-42 (panel C).

J20 mice [5] = test: J03 pilot study #2 in J20 mice (oral, longer duration); type: in vivo, mouse; conditions: oral delivery
Description: as §2
Based on these promising results, the study was repeated (pilot study #2) with oral delivery and a longer duration.

CRF1 = molecular target: T1, CRF1 (Homo sapiens, UniProt P34998); test: CRF1 binding (Ki)
T1 sequence (P34998 24-415): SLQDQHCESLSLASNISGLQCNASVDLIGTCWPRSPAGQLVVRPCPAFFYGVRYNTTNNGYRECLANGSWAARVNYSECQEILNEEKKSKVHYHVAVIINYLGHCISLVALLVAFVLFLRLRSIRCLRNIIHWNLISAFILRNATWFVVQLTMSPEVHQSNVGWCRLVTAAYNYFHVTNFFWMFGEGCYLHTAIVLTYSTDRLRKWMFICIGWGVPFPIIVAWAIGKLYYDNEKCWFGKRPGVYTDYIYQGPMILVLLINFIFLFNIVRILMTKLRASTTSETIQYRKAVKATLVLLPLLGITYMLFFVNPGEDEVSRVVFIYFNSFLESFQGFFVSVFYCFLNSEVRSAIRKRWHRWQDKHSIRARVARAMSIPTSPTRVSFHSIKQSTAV

p-tau = test: Cortisol-induced (stress-induced) p-tau increase in vitro; type: cell-based
From the text: To identify therapeutic candidates, a clinical library of CRF-1R inhibitors to was screened to determine their effects on cortisol-induced p-tau increases. […] J03 was shown specifically to inhibit stress-induced p-tau increases by cortisol in vitro.

Solubility in DMSO = type: physicochemical; conditions: organic solvent or mixture, read-out: Solubility
J20 mice [6] = test: J17 pilot study in J20 mice (oral, 28 days); type: in vivo, mouse
Description: as §2
In a J17 pilot study (#1 pilot study) male and female J20 mice were housed singly and treated with J17 at 10 mkd by oral delivery for 28 days. […]

CRFR2 = molecular target: T2, CRFR2 (Homo sapiens, UniProt Q13324); test: CRFR2 binding (Ki)
T2 sequence (Q13324 1-411): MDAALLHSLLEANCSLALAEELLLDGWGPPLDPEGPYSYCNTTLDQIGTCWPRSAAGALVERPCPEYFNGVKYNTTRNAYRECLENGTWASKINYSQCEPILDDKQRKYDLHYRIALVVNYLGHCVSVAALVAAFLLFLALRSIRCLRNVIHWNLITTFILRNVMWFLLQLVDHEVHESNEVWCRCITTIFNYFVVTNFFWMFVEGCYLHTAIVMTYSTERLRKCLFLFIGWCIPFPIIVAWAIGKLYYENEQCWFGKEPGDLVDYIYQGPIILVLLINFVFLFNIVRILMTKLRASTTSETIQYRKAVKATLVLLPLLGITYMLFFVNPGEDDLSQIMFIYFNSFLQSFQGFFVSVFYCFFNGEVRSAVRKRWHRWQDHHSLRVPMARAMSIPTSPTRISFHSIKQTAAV

PAMPA = type: in vitro ADME; conditions: Tertiary
[7] = SH-SY5Y cells, CRF-induced increase
[8] = Secondary (SH-Sy5Y, CRF stimulation)

Q: Which p-tau/tau ratios (SH-SY5Y cells [1]; 50 and 100 nM CRF, FIG. 28 panel C) does the source give for `CCC(COC)n1nnc2c(Nc3ccc(OC)cc3C)nc(C)cc21` (stereo not shown) [Compound J03, N-(4-Methoxy-2-methylphenyl)-1-[1-(methoxymethyl)propyl]-6-methyl-1H-1,2,3-triazolo[4,5-c]pyridine-4-amine] here?
A: Its p-tau/tau ratios is “highly significantly decreased”.

Q: What about the sAPPα (SH-SY5Y cells [1]; FIG. 28 panel D, significance for J03 at 100 nM CRF) of the same compound?
A: Its sAPPα is “trend for sAPPα to be higher”.

Q: And the “p-tau after CRF exposure” value (SH-SY5Y cells [1]; [7])?
A: Its value is “reduces; also recorded: decreased”.

Q: And the “tau after CRF exposure” value (SH-SY5Y cells [1]; [7])?
A: Its value is “reduces; also recorded: decreased”.

Q: What about the “sAPPα after CRF exposure” value (SH-SY5Y cells [1]; SH-SY5Y cells, FIG. 19) of the same compound?
A: Its value is “lower”.

Q: What about the “sAPPα (%)” value (SH-SY5Y cells [1]; [8]) of the same compound?
A: Its value is “Unchanged”.

Q: What about the tau (SH-SY5Y cells [1]; absence of CRF and presence of 100 nM CRF, FIG. 28 panel A) of the same compound?
A: The tau was “significantly decreased”.

Q: And the p-tau (SH-SY5Y cells [1]; presence and absence of CRF, FIG. 28 panel B)?
A: Its p-tau is “significantly reduced”.

Q: And the brain levels ([2]; 10 mk subcutaneous (SQ) injection, J20 mice)?
A: Its brain levels is “low”.

Q: And the concentration at 2 h ([2]; J20, mouse, brain, two hours after oral dosing in formulation, first day of pilot study #2)?
A: Its concentration at 2 h is 170 ng/g.

Q: And the brain levels ([2]; end of pilot study #2, oral dosing)?
A: Its brain levels is “about 35 ng/g”.

Q: What about the Tau % (SH-SY5Y cells [3]; Primary (SH-SY5Y)) of the same compound?
A: The Tau % was “Unchanged”.

Q: What about the p-tau (SH-SY5Y cells [3]; SH-SY5Y cells, no CRF) of the same compound?
A: Its p-tau is “decreased”.

Q: What about the Aβ1-40 (J20 mice [4]) of the same compound?
A: Its Aβ1-40 is “no difference”.

Q: And the Aβ1-40/1-42 ratio (J20 mice [4])?
A: The Aβ1-40/1-42 ratio was “significantly increased”.

Q: And the Aβ1-42 (J20 mice [4])?
A: Its Aβ1-42 is “decrease”.

Q: What about the P-tau (J20 mice [4]) of the same compound?
A: Its P-tau is “significantly lower”.

Q: And the “SAPP (sAPPα levels)” value (J20 mice [4])?
A: The value was “very slightly increased”.

Q: What about the sAPP/Aβ1-42 ratio (J20 mice [4]) of the same compound?
A: The sAPP/Aβ1-42 ratio was “very slightly increased”.

Q: What about the p-tau/tau ratio (J20 mice [4]; great individual variation) of the same compound?
A: The p-tau/tau ratio was “slightly higher”.

Q: And the Total tau (J20 mice [4]; largely due to one mouse)?
A: Its Total tau is “decreased”.

Q: What about the “behavior (NOR analysis of object memory)” value (J20 mice [4]; single housed J20 mice) of the same compound?
A: Its value is “slight improvement”.

Q: And the Aβ1-40 (J20 mice [5])?
A: The Aβ1-40 was “unchanged”.

Q: And the Aβ1-40/Aβ1-42 ratio (J20 mice [5])?
A: The Aβ1-40/Aβ1-42 ratio was “unchanged”.

Q: What about the Aβ1-42 (J20 mice [5]) of the same compound?
A: The Aβ1-42 was “unchanged”.

Q: And the novel location assay (J20 mice [5])?
A: Its novel location assay is “performed well”.

Q: What about the novel object assay (J20 mice [5]) of the same compound?
A: Its novel object assay is “performed well”.

Q: What about the sAPPα (J20 mice [5]) of the same compound?
A: Its sAPPα is “increased slightly”.

Q: What about the sAPPα/sAPPβ ratio (J20 mice [5]) of the same compound?
A: Its sAPPα/sAPPβ ratio is “slightly increased”.

Q: What about the sAPPβ (J20 mice [5]) of the same compound?
A: Its sAPPβ is “unchanged”.

Q: What about the p-tau (J20 mice [5]; decrease reached statistical significance) of the same compound?
A: Its p-tau is “decreased”.

Q: What about the Ki (CRF1; Tertiary, read-out: CRF1 Ki) of the same compound?
A: The Ki was 7 nM.

Q: And the Ki (CRF1; read-out: CRF-1 antagonist Ki)?
A: The Ki was roughly 7.9 nM.

Q: What about the “stress-induced p-tau increases by cortisol” value (p-tau) of the same compound?
A: Its value is “inhibit”.

Q: What about the solubility (Solubility in DMSO) of the same compound?
A: The solubility was roughly 10 mM (≈ 3550 µg/mL).

Q: What about the novel object preference (J20 mice [6]; all mice) of the same compound?
A: Its novel object preference is “increased novel object preference more than 17”.

Q: And the sAPPα (J20 mice [6]; both genders)?
A: Its sAPPα is “increase”.

Q: And the sAPPα/sAPPβ ratio (J20 mice [6]; males)?
A: The sAPPα/sAPPβ ratio was “slight increase”.

Q: What about the “activity (total interactions)” value (J20 mice [6]; not significant) of the same compound?
A: The value was “lowered”.

Q: What about the Ki (CRFR2) of the same compound?
A: The Ki was greater than 10000 nM.

Q: What about the PAMPA (PAMPA) of the same compound?
A: Its PAMPA is 0.92.

Q: What does the source list for `CCC(COC)n1nnc2c(Nc3ccc(OC)cc3C)nc(C)nc21` (stereo not shown) [Compound J04]?
A: brain levels ([2]; after SQ injection or oral delivery): 55 ng/g; Tau % (SH-SY5Y cells [3]; Primary (SH-SY5Y)): Unchanged; p-tau (SH-SY5Y cells [3]; SH-SY5Y cells, no CRF): did lower p-tau, although not significantly; tau (SH-SY5Y cells [3]; SH-SY5Y cells, no CRF): did not lower; Ki (CRF1; Tertiary, read-out: CRF1 Ki): 15 nM; solubility (Solubility in DMSO): ~10 mM (≈ 3560 µg/mL); PAMPA (PAMPA): 0.44

Q: With `CCC(COC)n1nnc2c(Nc3ccc(C)cc3C)nc(C)nc21` (stereo not shown) [Compound J05] as the compound, how does the solubility (Solubility in DMSO) read?
A: The solubility was roughly 10 mM (≈ 3400 µg/mL).

Q: What about the PAMPA (PAMPA) of the same compound?
A: Its PAMPA is 0.99.

Q: Which “p-Tau (%)” value (SH-SY5Y cells [1]; [8]) does the source give for `CCC(COC)n1nnc2c(Nc3ccc(F)cc3C)nc(C)nc21` (stereo not shown) [Compound J06] here?
A: The value was “Unchanged”.

Q: What about the Tau % (SH-SY5Y cells [3]; Primary (SH-SY5Y)) of the same compound?
A: The Tau % was “Unchanged”.

Q: What about the Ki (CRF1; Tertiary, read-out: CRF1 Ki) of the same compound?
A: Its Ki is greater than 1000 nM.

Q: What about the solubility (Solubility in DMSO) of the same compound?
A: The solubility was roughly 10 mM (≈ 3440 µg/mL).

Q: With `CCC(COC)n1nnc2c(Nc3ccc(F)cc3F)nc(C)nc21` (stereo not shown) [Compound J07] as the compound, how does the Ki (CRF1; Tertiary, read-out: CRF1 Ki) read?
A: The Ki was greater than 1000 nM.

Q: And the solubility (Solubility in DMSO)?
A: The solubility was roughly 10 mM (≈ 3480 µg/mL).

Q: What about the PAMPA (PAMPA) of the same compound?
A: The PAMPA was 0.72.

Q: With `CCC(COC)n1nnc2c(Nc3ccc(Cl)cc3C)nc(C)nc21` (stereo not shown) [Compound J08] as the compound, how does the “sAPPα (%)” value (SH-SY5Y cells [1]; [8]) read?
A: Its value is “Unchanged”.

Q: And the Tau % (SH-SY5Y cells [3]; Primary (SH-SY5Y))?
A: The Tau % was “Unchanged”.

Q: What about the Ki (CRF1; Tertiary, read-out: CRF1 Ki) of the same compound?
A: Its Ki is 15 nM.

Q: What about the solubility (Solubility in DMSO) of the same compound?
A: The solubility was roughly 10 mM (≈ 3610 µg/mL).

Q: And the PAMPA (PAMPA)?
A: Its PAMPA is 1.27.

Q: What does the source list for `CCC(COC)n1nnc2c(Nc3ccc(OC)cc3OC)nc(C)nc21` (stereo not shown) [Compound J09]?
A: Tau % (SH-SY5Y cells [3]; Primary (SH-SY5Y)): Unchanged; solubility (Solubility in DMSO): ~10 mM (≈ 3720 µg/mL)

Q: For `CCC(COC)n1nnc2c(N3CCCC3)nc(C)nc21` (stereo not shown) [Compound J10], which Tau % (SH-SY5Y cells [3]; Primary (SH-SY5Y)) is on record?
A: The Tau % was “Unchanged”.

Q: What about the “p-Tau (%)” value (SH-SY5Y cells [3]; Primary (SH-SY5Y)) of the same compound?
A: The value was “Unchanged”.

Q: And the solubility (Solubility in DMSO)?
A: Its solubility is roughly 10 mM (≈ 2900 µg/mL).
